Source: PMC12693701, “Glucosinolate-Derived Metabolites from Barbarea vulgaris (Brassicaceae): Evaluation of Antimicrobial, Antioxidant, and Anti-Inflammatory Potentials” (Molecules, 2025)
Converted amounts (≈) assume the structure as drawn. Read-outs that look alike come from different tables or passages of the source.

What was measured:
[1] = system: P. mirabilis; experiment: Microdilution MIC/MMC with resazurin; assay type: cell-based, Proteus mirabilis; conditions: for MIC: Proteus mirabilis
Experimental: (§1) The antimicrobial activity was evaluated against 15 microorganisms. This included 11 bacterial strains: four standard strains (Staphylococcus aureus ATCC 25923, Bacillus subtilis ATCC 6633, Bacillus pumilus NCTC 8241, and Escherichia coli ATCC 25922) and six clinical or environmental isolates (Staphylococcus aureus, Escherichia coli, Bacillus cereus, Proteus mirabilis, Salmonella enterica, and Klebsiella pneumoniae). One probiotic strain, Bifidobacterium animalis subsp. lactis was tested. In addition, four fungal strains, Candida albicans ATCC 10231, Trichoderma viride ATCC 13233, Aspergillus flavus ATCC 9170, and Fusarium solani ATCC 11712 were tested. The bacterial strains were kept in glycerol stock at −80 °C and the fungal strains in paraffin oil stock at 4 °C.
(§2) Bacterial and yeast suspensions were prepared using the direct colony method, as previously described by Andrews. The turbidity of the initial suspensions was adjusted to match the 0.5 McFarland standard using a densitometer (Biosan, Riga, Latvia), corresponding to approximately 10^8 colony-forming units (CFU)/mL for bacterial cells and 10^6 CFU/mL for yeast cells. Subsequently, 1:100 dilutions of the initial suspensions were prepared in sterile 0.85% saline. Fungal spore suspensions were obtained by gently harvesting spores from agar slopes containing mature mycelial growth. The collected spore suspensions were then diluted 1:1000 in sterile 0.85% saline prior to use.
(§3) Antimicrobial activity was evaluated by determining the minimum inhibitory concentration (MIC) and minimum microbicidal concentration (MMC) using the microdilution plate method with resazurin as an indicator [28]. In the 96-well plates, 100 μL of Mueller–Hinton broth (Torlak, Belgrade, Serbia) for bacterial testing and Sabouraud broth (Torlak, Belgrade, Serbia) for fungal testing were dispensed into each well. The compounds under investigation were initially dissolved in a 10% dimethyl sulfoxide (DMSO) solution, followed by dilution in sterile distilled water, resulting in a working compound solution containing 1% DMSO. A 100 μL aliquot of the stock solution of the tested compound was added to the first row, and twofold serial dilutions were then carried out using a multichannel pipette. The resulting concentration range was from 5 to 0.039 mg/mL. The inoculated microtiter plates were incubated at 37 °C for 24 h for bacteria, at 28 °C for 48 h for yeasts, and at 28 °C for 72 h for molds.
(§4) Each test also included growth control and sterility control. All tests were conducted in duplicate. MIC was defined as the lowest concentration of tested compounds that prevented resazurin color change from blue to pink. For molds, MIC values of the tested compound were determined as the lowest concentration that inhibited visible mycelia growth. MMC was determined by inoculation of the nutrient agar medium by plating […] of samples from wells, where no indicator color change was recorded. At the end of the incubation period, the lowest concentration with no growth (no colony) was defined as MMC.
(§5) Doxycycline, ampicillin and amphotericin B (- Sigma-Aldrich, St. Louis, MO, USA) and ketoconazole (Hemofarm A.D., Vršac, Serbia) were dissolved in a nutrient liquid medium. Doxycycline is a broad-spectrum antibiotic effective against both aerobic and anaerobic Gram-positive and Gram-negative bacteria. Ampicillin, a beta-lactam antibiotic, primarily targets Gram-positive bacteria but also some Gram-negative strains. Amphotericin B is an antifungal drug often used for serious systemic fungal infections and is one of the effective treatments for fungal infections caused by Aspergillus sp. Ketoconazole is an antifungal agent used to inhibit the growth of Candida species.

[2] = system: K. pneumoniae; experiment: Microdilution MIC/MMC with resazurin; assay type: cell-based, Klebsiella pneumoniae; conditions: for MIC: Klebsiella pneumoniae
Experimental: as §1, §2, §3, §4, §5

[3] = system: A. flavus ATCC 9170; experiment: Microdilution MIC/MMC; assay type: cell-based, Aspergillus flavus
Experimental: as §1, §2, §3, §4, §5

[4] = system: B. cereus; experiment: Microdilution MIC/MMC with resazurin; assay type: cell-based, Bacillus cereus; conditions: for MIC: Bacillus cereus
Experimental: as §1, §2, §3, §4, §5

[5] = ABTS radical scavenging assay; conditions: mean ± SD
Experimental: The ABTS radical cation solution was prepared following the previously described protocol. Different concentrations of the analyzed samples were prepared in DMSO. The test samples were prepared following the specified procedure: 20 µL of sample was combined with 980 µL of methanol, followed by the addition of 1000 µL of ABTS solution. Absorbance was measured at 734 nm. All measurements were performed in triplicate.

[6] = system: B. pumilus NCTC 8241; experiment: Microdilution MIC/MMC with resazurin; assay type: cell-based, Bacillus pumilus; conditions: for MIC: Bacillus pumilus, NCTC8241
Experimental: as §1, §2, §3, §4, §5

[7] = system: S. enterica; experiment: Microdilution MIC/MMC with resazurin; assay type: cell-based, Salmonella enterica; conditions: compounds 1–8; for MIC: Salmonella enterica
Experimental: as §1, §2, §3, §4, §5

[8] = system: B. subtilis ATCC 6633; experiment: Microdilution MIC/MMC with resazurin; assay type: cell-based, Bacillus subtilis; conditions: for MIC: Bacillus subtilis, ATCC6633
Experimental: as §1, §2, §3, §4, §5

[9] = system: B. animalis subsp. lactis; experiment: Microdilution MIC/MMC with resazurin; assay type: cell-based, Bifidobacterium animalis subsp. lactis
Experimental: as §1, §2, §3, §4, §5

[10] = system: F. solani ATCC 11712; experiment: Microdilution MIC/MMC; assay type: cell-based, Fusarium solani
Experimental: as §1, §2, §3, §4, §5

[11] = system: E. coli ATCC 25922; experiment: Microdilution MIC/MMC with resazurin; assay type: cell-based, Escherichia coli; conditions: for MIC: Escherichia coli, ATCC25922
Experimental: as §1, §2, §3, §4, §5

[12] = system: E. coli; experiment: Microdilution MIC/MMC with resazurin; assay type: cell-based, Escherichia coli; conditions: E. coli isolate, compounds 1–8
Experimental: as §1, §2, §3, §4, §5

[13] = system: S. aureus ATCC 25923; experiment: Microdilution MIC/MMC with resazurin; assay type: cell-based, Staphylococcus aureus; conditions: for MIC: Staphylococcus aureus, ATCC25923
Experimental: as §1, §2, §3, §4, §5

[14] = system: S. aureus; experiment: Microdilution MIC/MMC with resazurin; assay type: cell-based, Staphylococcus aureus; conditions: for MIC: Staphylococcus aureus
Experimental: as §1, §2, §3, §4, §5

[15] = A. flavus ATCC 9170, compounds 1–8
[16] = B. pumilus NCTC 8241, compounds 1–8
[17] = B. subtilis ATCC 6633, compounds 1–8
[18] = B. animalis subsp. lactis, compounds 1–8
[19] = F. solani ATCC 11712, compounds 1–8
[20] = E. coli ATCC 25922, compounds 1–8
[21] = S. aureus ATCC 25923, compounds 1–8
[22] = S. aureus isolate, compounds 1–8

Row | Structure (SMILES) | MMC ([1]; P. mirabilis, compounds 1–8) | MMC ([2]; K. pneumoniae, compounds 1–8) | MMC [3, 15] | MMC ([4]; B. cereus, compounds 1–8) | ABTS Scavenging Ability ([5]; 25 µM) | ABTS Scavenging Ability ([5]; 50 µM) | ABTS Scavenging Ability ([5]; 100 µM) | MMC [6, 16] | MIC [7] | MMC [7] | MMC [8, 17] | MMC [9, 18] | MMC [10, 19] | MMC [11, 20] | MMC [12] | MMC [13, 21] | MMC [14, 22] | also measured
1 | Oc1ccc(CCN=C=S)cc1 [Compound 8, 2-(4-hydroxyphenyl)ethyl isothiocyanate] | 0.625 mg/mL | 0.625 mg/mL | <0.039 mg/mL | 1.25 mg/mL | 2.9 ± 1.3% | 6.8 ± 1.1% | 11.9 ± 0.8% | 0.156 mg/mL | 312 µg/mL (≈ 1740 µM) | 1.25 mg/mL | >5 mg/mL | 0.625 mg/mL | <0.039 mg/mL | 0.312 mg/mL | 0.625 mg/mL | 0.625 mg/mL | 0.312 mg/mL | MIC [1]: 156 µg/mL (≈ 870 µM); MIC [2]: 312 µg/mL (≈ 1740 µM); MIC [3, 15]: <39 µg/mL; MIC ([3]; Aspergillus flavus, ATCC9170): < 39 µg/mL; MIC [4]: 156 µg/mL (≈ 870 µM); MIC [6]: 156 µg/mL (≈ 870 µM); MIC [8]: 312 µg/mL (≈ 1740 µM); MIC [9, 18]: <39 µg/mL; MIC ([9]; Bifidobacterium animalis): < 39 µg/mL; MIC [10, 19]: <39 µg/mL; MIC ([10]; Fusarium solani, ATCC11712): < 39 µg/mL; MIC [11]: 78 µg/mL (≈ 435 µM); MIC [12]: <39 µg/mL; MIC ([12]; Escherichia coli): 39 µg/mL (≈ 218 µM); MIC [13]: 156 µg/mL (≈ 870 µM); MIC [14]: 78 µg/mL (≈ 435 µM)
2 | CSC(=S)NCCc1ccccc1 [Compound 1, Methyl phenethylcarbamodithioate] | 5 mg/mL | 5 mg/mL | 2.5 mg/mL | 5 mg/mL | 1.7 ± 1.1% | 2.2 ± 1.2% | 2.6 ± 0.8% | 2.5 mg/mL | 5000 µg/mL (≈ 23700 µM) | 5 mg/mL | >5 mg/mL | 2.5 mg/mL | 1.25 mg/mL | 1.25 mg/mL | 5 mg/mL | 5 mg/mL | 5 mg/mL | MIC ([1]; P. mirabilis, compounds 1–8, read-out: MIC): 5000 µg/mL (≈ 23700 µM); MIC ([2]; K. pneumoniae, compounds 1–8, read-out: MIC): 5000 µg/mL (≈ 23700 µM); MIC ([3]; Aspergillus flavus, ATCC9170, A. flavus ATCC 9170, compounds 1–8, read-out: MIC): 1250 µg/mL (≈ 5910 µM); MIC ([4]; B. cereus, compounds 1–8, read-out: MIC): 5000 µg/mL (≈ 23700 µM); MIC ([6]; B. pumilus NCTC 8241, compounds 1–8, read-out: MIC): 1250 µg/mL (≈ 5910 µM); MIC ([8]; B. subtilis ATCC 6633, compounds 1–8, read-out: MIC): 2500 µg/mL (≈ 11800 µM); MIC ([9]; Bifidobacterium animalis, B. animalis subsp. lactis, compounds 1–8, read-out: MIC): 1250 µg/mL (≈ 5910 µM); MIC ([10]; Fusarium solani, ATCC11712, F. solani ATCC 11712, compounds 1–8, read-out: MIC): 1250 µg/mL (≈ 5910 µM); MIC ([11]; E. coli ATCC 25922, compounds 1–8, read-out: MIC): 1250 µg/mL (≈ 5910 µM); MIC ([12]; Escherichia coli, read-out: MIC): 2500 µg/mL (≈ 11800 µM); MIC ([13]; S. aureus ATCC 25923, compounds 1–8, read-out: MIC): 5000 µg/mL (≈ 23700 µM); MIC ([14]; S. aureus isolate, compounds 1–8, read-out: MIC): 5000 µg/mL (≈ 23700 µM)
